Measurements taken from patent US20080009512A1, “Tetrahydroquinolones and Aza-Analogues Thereof for Use as Dpp-IV Inhibitors in the Treatment of Diabetes” (ASTRAZENECA AB, priority 2004, published 2008).

Molecular target: T1, DPP-IV activity from human colonic carcinoma cell extracts (Caco-2) (Homo sapiens, UniProt P27487)
T1 construct: Cell extract is prepared from cells solubilized in 10 mM Tris HCI, 0.15 M NaCI, 0.04 t.i.u.aprotinin, 0.5% nonidet-P40; host or cells: Caco-2, differentiated to induce DPP-IV expression; detergent-solubilized extract
T1 sequence (P27487 whole entry): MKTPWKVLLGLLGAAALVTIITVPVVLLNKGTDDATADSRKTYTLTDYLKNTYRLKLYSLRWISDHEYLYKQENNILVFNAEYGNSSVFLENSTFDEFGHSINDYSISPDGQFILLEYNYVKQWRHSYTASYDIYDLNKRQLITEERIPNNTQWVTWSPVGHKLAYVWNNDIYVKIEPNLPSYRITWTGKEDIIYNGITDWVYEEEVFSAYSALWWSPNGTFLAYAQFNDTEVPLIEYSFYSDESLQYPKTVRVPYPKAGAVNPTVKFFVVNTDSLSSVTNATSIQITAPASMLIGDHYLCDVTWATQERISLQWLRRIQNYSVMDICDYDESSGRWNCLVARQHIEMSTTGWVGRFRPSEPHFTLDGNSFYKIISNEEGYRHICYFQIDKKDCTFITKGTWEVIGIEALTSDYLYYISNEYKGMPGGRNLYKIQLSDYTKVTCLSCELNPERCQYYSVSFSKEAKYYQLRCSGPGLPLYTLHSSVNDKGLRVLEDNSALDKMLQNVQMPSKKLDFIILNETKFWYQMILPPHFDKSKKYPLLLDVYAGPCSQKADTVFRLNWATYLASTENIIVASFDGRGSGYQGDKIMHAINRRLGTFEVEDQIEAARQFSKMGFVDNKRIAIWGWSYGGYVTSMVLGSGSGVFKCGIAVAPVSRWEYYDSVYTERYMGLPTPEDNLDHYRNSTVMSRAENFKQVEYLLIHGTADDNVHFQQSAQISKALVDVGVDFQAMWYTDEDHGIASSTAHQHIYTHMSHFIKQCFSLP
Test: caco-2 DPP-IV Assay (CaCo2 extract, fluorescence, H-Gly-Pro-AMC substrate)
Type: biochemical
Details: solubilized Caco-2 protein extract; 11-point dose-response curves, 4 parameter logistic function
Protocol: As indicated above, all of the compounds, and their corresponding pharmaceutically-acceptable salts, are useful in inhibiting DPP-IV. […] The human colonic carcinoma cell line Caco-2 was obtained from the American Type Culture Collection (ATCC HTB 37). Differentiation of the cells to induce DPP-IV expression was accomplished as described by Reisher, et al. (Proc. Natl. Acad. Sci., Vol. 90, pgs. 5757-5761 (1993)). Cell extract is prepared from cells solubilized in 10 mM Tris HCI, 0.15 M NaCI, 0.04 t.i.u.aprotinin, 0.5% nonidet-P40, pH 8.0, which is centrifuged at 35,000 g for 30 min at 4° C. to remove cell debris.
The […] assay is conducted by adding 20 μg solubilized Caco-2 protein or purified porcine kidney DPP-IV, in a final volume of 10 ul in assay buffer (25 mM Tris HCl pH 7.4, 140 mM NaCl, 10 mM KCl, 0.1% Triton-x-100) to microtiter plate wells. […] The endpoint is determined by measuring absorbance at 405 nm in a Labsystems microtiter plate reader.
Activity of CaCo2 extract is also measured employing a modified version of the assay described in Kubota, et al. (Clin. Exp. Immunol., Vol. 89, pgs. 192-197 (1992)). […] After the 10 min. reaction, florescence is measured using a Tecan Ultra fluorimeter (Excitation 360 nm Emission 465 nm). […]

`N[C@@H](CC(=O)NC1Cc2ccccc2NC1=O)Cc1ccccc1F` (stereo partly drawn) [Example 1, (3R)-3-Amino-4-(2-fluorophenyl)-N-(2-oxo-1,2,3,4-tetrahydroquinolin-3-yl)butanamide] was tested, and the IC50 was 580 nM.
